Reference: PubChem BioAssay AID179 (DTP/NCI, 2004)
Active and inactive are the calls of the source.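 The calls were made as follows: active = compounds giving half or more protection of infected cells from virus-caused growth loss, again on retest; inactive = the rest.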 Where a SMILES comes first, the peptide text is derived from it. [ ]: non-standard residue; d: D form. The star is where a group is joined. ONb = O=[N+]([O-])c1ccc(CO*)cc1; AllylGly = C=CC[CH](N)C(=O)O; Iva = CC[C](C)(N)C(=O)O; Cbz = O=C(OCc1ccccc1)*; Boc = CC(C)(C)OC(=O)*; X8 = C1CCC(=NO*)C1

System: CEM cells HIV-1 protection, formazan growth assay
Experiment: NCI AIDS Antiviral Assay
Conditions: for IC50: measured here: growth of uninfected CEM cells
In short: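 Human CEM cells, uninfected and HIV-1-infected, received five drug concentrations, and growth was read by soluble formazan assay. Compounds giving at least 50% protection were retested; reproducible 100% protection defined confirmed active.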

C[Si](C)(C)CCOCN(C(=O)C1=CCC2(CC1)OCCO2)c1ccccc1I
EC50: > 200 µM | IC50: 12.9 µM

C/C(CC(=O)Nc1cccc([N+](=O)[O-])c1)=N\NC(=O)C[n+]1ccccc1
EC50: > 631 µM | IC50: 240 µM

COC(=O)C(C#CCCCCC#CC(NC(=O)OCc1ccccc1)(C(=O)OC)C(F)(F)F)(NC(=O)OCc1ccccc1)C(F)(F)F (configuration not stated)
EC50: > 200 µM | IC50: 138 µM

CCC1OC2C(CC=C(C)C)=C3OC(C)(O)C(C)(CC)C(O)C3=C3OC(=O)C=C1C32 (configuration not stated)
EC50: > 200 µM | IC50: 30.9 µM

N#CC12C(=O)N3C(=NC(c4ccccc4)NC3c3ccccc3)C1(C#N)C(c1ccccc1)NC1=C2CCCC1 (configuration not stated)
EC50: > 200 µM | IC50: > 200 µM

c1ccc2c(c1)OCc1nccn1-2
EC50: > 200 µM | IC50: 97.7 µM

O=c1/c(=C/c2ccc(Cl)cc2Cl)sc2nc3ccccc3n12
outcome: inactive

C/C=C/C#CC#CC(O)C(/C=C/CCCO)OC1OC(COC2OC(CO)C(O)C(O)C2O)C(O)C(O)C1O (configuration not stated)
EC50: > 447 µM | IC50: > 447 µM

COc1ccc(/C=C/C(=O)C(C)(C)C)cc1
outcome: inactive

Cc1ccsc1/C=N/Nc1nc2ccccc2s1
EC50: > 200 µM | IC50: 105 µM

Oc1ccc2c(c1)OCC1c3cc4c(cc3OC21)OCO4 (configuration not stated)
outcome: inactive

Cc1ccc2c(c1)-c1c(C#N)c(N)nc(-c3ccccc3)c1CCS2(=O)=O
EC50: > 200 µM | IC50: 2.09 µM

O=C(C(Cl)=C(Nc1ccccc1)Nc1ccccc1)C(Cl)Cl
EC50: > 200 µM | IC50: 19.5 µM

CC(=O)Oc1ccc2c(oc(=O)c3nc(C)oc32)c1C
EC50: > 200 µM | IC50: 145 µM

CCOC(=O)Cn1c(=O)c2nc(SC)sc2n(-c2ccccc2)c1=O
EC50: > 200 µM | IC50: > 200 µM

Clc1ccc(C(=C=C(c2ccccc2)c2ccccc2)c2ccc(Cl)cc2)cc1
EC50: > 22.9 µM | IC50: > 22.9 µM

CCOC(=O)C(NC(=O)c1ccccc1)(Nc1cc(C)on1)C(F)(F)F (configuration not stated)
EC50: > 200 µM | IC50: > 200 µM

Cc1ccc(C2(C)CC(C)(C)c3ccc(C)cc3O2)c(O)c1 (configuration not stated)
EC50: > 200 µM | IC50: 20.4 µM

C/C(CC(O)(C(F)(F)Cl)C(F)(F)Cl)=N\NC(N)=S
EC50: > 200 µM | IC50: 110 µM

CCCCCCCCCCCCN1C=C(C(N)=O)C(S(=O)(=O)O)c2ccccc21 (configuration not stated)
EC50: 6.61 µM | IC50: 25.1 µM

CC(=O)N=C1N(/C=C2\C(=O)Oc3ccccc3C2=O)C(=O)/C(=C/c2ccc(Cl)cc2Cl)N1C
EC50: > 200 µM | IC50: 34.7 µM

O=C(O)C(=O)/C=C\c1ccc(Cl)cc1
EC50: > 617 µM | IC50: 191 µM

COc1ccc2c(c1)CC[C@@H]1[C@@H]2CC[C@]2(C)[C@H](O)[C@H](O)C[C@@H]12
EC50: > 200 µM | IC50: 32.4 µM

CCOC(=O)c1cnccc1CC1(C#N)c2ccccc2C=CN1C(=O)c1ccccc1 (configuration not stated)
EC50: > 200 µM | IC50: 17.8 µM

Cc1cc(N(CCC#N)S(C)(=O)=O)ccc1C=O
EC50: > 933 µM | IC50: > 933 µM

NC(=O)NC(=NCc1ccccc1)NCc1ccccc1
EC50: > 776 µM | IC50: 107 µM

Cc1ccc(O)c(Cc2cc(C)cc(Cc3cc(C)ccc3O)c2O)c1
EC50: > 102 µM | IC50: 20 µM

CC(=O)Nc1cccc(S(=O)(=O)c2cccc(NC(=O)c3ccccc3SC(=O)CCCC[n+]3ccccc3)c2)c1
EC50: 17.8 µM | IC50: > 200 µM

O=C1CCCCCCCCCCC(=O)N2CCOCCOCCN1Cc1cccc(n1)C2
EC50: > 407 µM | IC50: 316 µM

Cc1c(OC(C)C(=O)O)ccc2c(-c3ccccc3)cc(=O)oc12 (configuration not stated)
outcome: inactive

N#CCCN(CCC#N)c1ccc(/C=C2/C=C(c3ccccc3)OC2=O)cc1
EC50: > 14.1 µM | IC50: > 14.1 µM

CC(=O)O[C@H]1CC[C@@]2(C)C(=CC[C@@H]3C2CC[C@]2(C)Nc4[nH]ncc4CC32)C1 (some centres not stated)
outcome: inactive

COc1ccc2nc3n(c2c1)C(c1c(F)cccc1Cl)SC3 (configuration not stated)
EC50: > 200 µM | IC50: > 200 µM

NC(=O)C1Cc2cc3c(cc21)OCO3 (configuration not stated)
EC50: > 200 µM | IC50: > 200 µM

CCN(CC)CCCC(C)Nc1c(Sc2cnc3cc(Cl)ccc3c2NC(C)CCCN(CC)CC)cnc2cc(Cl)ccc12 (configuration not stated)
EC50: > 309 µM | IC50: 1.7 µM

O=C(c1cccs1)N(C(=S)N1CCN(c2ccccc2)CC1)C1CCCCC1
EC50: > 12.6 µM | IC50: > 12.6 µM

COc1c(Cl)cc(C(=CCCCC(=O)N(C)OC)c2cc(Cl)c(OC)c(C(=O)N(C)OC)c2)cc1C(=O)N(C)OC
EC50: > 200 µM | IC50: 30.9 µM

COc1ccc2c(c1)CCN1C2CCN2C(=O)CCC21 (configuration not stated)
EC50: > 912 µM | IC50: > 912 µM

Cc1c(CO)[n+](=O)c2ccccc2n1[O-]
EC50: > 200 µM | IC50: > 200 µM

Cc1ccc(S(=O)(=O)N2CCCSCC2)cc1
EC50: > 182 µM | IC50: > 182 µM

C=CCC(NC(=O)OC(C)(C)C)C(=O)NC(CCC(=O)OCc1ccc([N+](=O)[O-])cc1)C(N)=O (configuration not stated) (Boc-[AllylGly]-Glu(ONb)-NH2; configuration not given here)
EC50: > 200 µM | IC50: 102 µM

C=CC[C@@H](N)C(=O)N(C)[C@@H](C)[C@@H](O)c1ccccc1
EC50: > 200 µM | IC50: > 200 µM

C=C1[C@H]2CCC3(CC[C@H]4C5(CCC[C@@]4(C)C(=O)N(CCO)C5)[C@@H]3C2)[C@@H]1O
outcome: inactive

C=CC1CCC[N+]1(CC(=O)OCC)Cc1ccccc1 (configuration not stated)
EC50: > 200 µM | IC50: > 200 µM

CO[C@@]12[C@H](COC(N)=O)C3=C(C(=O)C(C)=C(N)C3=O)N1C[C@@H]1N[C@@H]12
EC50: > 17.4 µM | IC50: 0.794 µM

COC1/C=C/OC2(C)Oc3c(C)c(O)c4c(O)c(cc(OCC(=O)N(Cc5ccccc5)Cc5ccccc5)c4c3C2=O)NC(=O)/C(C)=C/C=C/C(C)C(O)C(C)C(O)C(C)C(OC(C)=O)C1C (configuration not stated)
outcome: inactive

CO/C=C(\Br)c1ccc2c(c1)OCO2
outcome: inactive

O=C1CC2c3ccccc3CCC2c2ccccc21 (configuration not stated)
EC50: > 200 µM | IC50: 7.59 µM

O=C(O)c1c(CC(Cc2ccccc2)C(=O)O)ccc2c1CCC2 (configuration not stated)
EC50: > 200 µM | IC50: > 200 µM

Cc1cc(C(=O)N2CCN(Cc3ccccc3)CC2)c(C)o1
EC50: > 741 µM | IC50: 324 µM

Cc1cccc2c(NCCCN(C)C)c3c([N+](=O)[O-])ccc(C)c3nc12
EC50: > 2 µM | IC50: 0.162 µM

Cc1cc(=O)oc2cc(OCCCOc3ccc4c(C)cc(=O)oc4c3)ccc12
EC50: > 3.72 µM | IC50: > 3.72 µM

O=S1(=O)C2C=CCC1C(O)CC2 (configuration not stated)
EC50: > 933 µM | IC50: > 933 µM

CCOC(=O)CCC(NC(=O)OCc1ccccc1)C(=O)NC(CC(=O)OC)C(=O)NC(CC(=O)OC)C(=O)NC(CCC(=O)OCC)C(=O)OCC (configuration not stated) (Cbz-E(OEt)D(OMe)D(OMe)E(OEt)-OEt; configuration not given here)
EC50: > 50.1 µM | IC50: > 50.1 µM

O=Cc1ccc(-c2cccc([N+](=O)[O-])c2)s1
EC50: > 200 µM | IC50: 166 µM

CC(C)(C)[Si](OC[C@H]1OC(=O)[C@@H]2CN(Cc3ccccc3)C[C@H]12)(c1ccccc1)c1ccccc1
EC50: > 7.76 µM | IC50: > 7.76 µM

COC(=O)[C@@H]1CSC(=S)N1C(=O)C[C@H]1CC=CC[C@H]1CC(=O)Sc1ccccc1
outcome: inactive

CCC(C)(NC(=O)C(C)NC(=O)OC(C)(C)C)C(=O)NC(C)C(=O)NC(C)(CC)C(=O)ON=C1CCCC1 (configuration not stated) (Boc-A[Iva]A[Iva]-X8; configuration not given here)
EC50: > 200 µM | IC50: 83.2 µM

Cc1ccc(C(=O)O/N=C2/CCCCC2CN(C)C)cc1 (configuration not stated)
outcome: inactive

O=C(N/N=C/c1cc(Cl)cc(Cl)c1[OH2+])c1ccncc1.O=S(=O)([O-])[O-].[Fe+2]
outcome: inactive

Cc1cc(-c2ccco2)oc(=O)c1NC(=O)c1cnccn1
EC50: > 200 µM | IC50: > 200 µM

CC(C)(NC(=O)OCc1ccccc1)C(=O)NC(Cc1ccccc1)C(=O)O (configuration not stated) (HELM PEPTIDE1{[O=C(OCc1ccccc1)[*:2]].[Aib].[O=C(O)C(Cc1ccccc1)N[*:1]]}$$$$V2.0)
EC50: > 200 µM | IC50: > 200 µM

CCC(=O)[O][Bi]([c]1ccccc1)[c]1ccccc1
EC50: > 30.9 µM | IC50: 5.89 µM

S=C(Nc1ccccc1)Nc1[nH]c(=S)sc1-c1nc2ccccc2[nH]1
EC50: > 1.86 µM | IC50: > 1.86 µM

Cc1ccc2c(/C=C/c3ccc(N(C)C)cc3)ccc(C(C)C)cc1-2
EC50: > 200 µM | IC50: 151 µM

COc1cc(O)c2c(c1)C(=O)C=C(Cl)C2=O
outcome: inactive

c1c2c(cc3c1OCO3)C(c1onc3cc4c(cc13)OCO4)=NCC2
outcome: inactive

COc1ccc(/C=C(\C)C=C(C#N)C#N)cc1
EC50: > 44.7 µM | IC50: 34.7 µM

N=c1oc2ccccc2cc1-c1nc2ccccc2c(=O)[nH]1
outcome: inactive

Nc1nc(N)c(-c2ccc(Cl)cc2)c(CCC(=O)Nc2cccc(C(F)(F)F)c2)n1
EC50: > 12 µM | IC50: > 12 µM

CC1=CC(=O)CC2(C)CC[C@@H]3C[C@]12OC3(C)C (some centres not stated)
outcome: inactive

C=C1C(=O)O[C@H]2[C@H]3O[C@@H](C[C@@H]12)[C@@]1(C)CC[C@H](O1)[C@H](C)CCC[C@H]3C
EC50: > 20 µM | IC50: 1.07 µM

O=C1CCCCC/C1=C\c1cccc(Cl)c1
EC50: > 200 µM | IC50: 28.8 µM

O=C(CCC(=O)CC(O)(C(F)(F)F)C(F)(F)F)CC(O)(C(F)(F)F)C(F)(F)F
EC50: > 200 µM | IC50: 47.9 µM

Cn1ccc(=NS(=O)(=O)c2ccccc2)cc1
outcome: inactive

C/C=C1\C[C@@H]2C(OC)Nc3cc(O)c(OC)cc3C(=O)N2C1 (some centres not stated)
EC50: > 813 µM | IC50: 0.263 µM

CCCCC(O)(c1ccccc1)C(O)(c1ccccc1)c1c(F)c(F)c(F)c(F)c1F (configuration not stated)
EC50: > 200 µM | IC50: 39.8 µM

C/C=C1/C(=C/c2[nH]c(/C=c3\[nH]/c(=C/C4=NC(=O)C(CC)=C4C)c(C)c3CCC(=O)O)c(CCC(=O)O)c2C)NC(=O)C1C (configuration not stated)
outcome: inactive

Cc1cn(CC2=NCC(C)N2)c(=O)[nH]c1=O (configuration not stated)
EC50: > 200 µM | IC50: > 200 µM

CCOC(=O)C12OC(CCC1=O)C(C(=O)OC)=C2C(=O)OC (configuration not stated)
EC50: > 200 µM | IC50: > 200 µM

Cn1c(=O)c(-c2ccccc2)c(O)c2ccccc21
EC50: > 200 µM | IC50: > 200 µM

O=[N+]([O-])c1cccc([N+](=O)[O-])c1S(=O)(=O)c1ccccc1
EC50: > 61.7 µM | IC50: 6.31 µM
